Consider three molecules from US11559598B2, “Alcohol free, low viscosity, and high water content air freshener compositions” (Belle-Aire Fragrances, LLC, priority 2020, dated 2023).

For data set [1] the following is noted: at 25° C.; cited from earlier work.
Data set [2] is described as follows: Viscosity by Brookfield Rotational Viscometer. It counts as physicochemical. As to conditions: 20% BAC1342 in distilled water. How it is done:
Two of the compositions used traditional used surfactants (polysorbate 20 and octylphenol oxylate), and the third used a glycol ether (diethylene glycol mono butyl ether). The appearances of the compositions were recorded and their viscosities were measured using a Brookfield Rotational Viscometer with Spindle #1 and Rotational Speed at 12 RPM: […]

Data set [3] can be described thus: Appearance of air freshener compositions with 20% BAC1342. It is filed as physicochemical. As to conditions: 20% BAC1342 in distilled water, without any other surfactants. The protocol: Two of the compositions used traditional used surfactants (polysorbate 20 and octylphenol oxylate), and the third used a glycol ether (diethylene glycol mono butyl ether). The appearances of the compositions were recorded and their viscosities were measured using a Brookfield Rotational Viscometer with Spindle #1 and Rotational Speed at 12 RPM:
Both of the prior art surfactants fail to form transparent microemulsion with 20% BAC1342 in distilled water.

Values after ≈ are worked out from the molar mass of the structure shown.

Regarding `C=C1CC/C=C(\C)CC[C@@H]2[C@@H]1CC2(C)C` [Beta-caryophyllene], the water solubility in data set [1] was 0.05 mg/L (≈ 0.245 µM).
With `CCCCOCCOCCO` [diethylene glycol n-butyl ether], the “viscosity (in words)” value in data set [2] was “low enough to be applied in various formats such as room sprays and plug-ins”. Also, in data set [3], the “formation of transparent microemulsion” value is “forms clear microemulsion”.
For `CC(CC=O)c1ccc(C(C)(C)C)cc1` (stereo not shown) [3-(4-tert-butylphenyl)butanal], in data set [1], the water solubility is on record as 38 mg/L (≈ 186 µM).
